Drawing on a melting point compilation (Tetko et al.), this text covers melting point for 42 molecules.

The term melting point denotes the temperature of the solid-liquid transition. For the molecule `Cc1ccccc1N1CSc2nnc(-c3cccc([N+](=O)[O-])c3)n2C1`, the melting point lay in the range of 239 to 240 °C.
In turn, `Cn1nc(C(=O)Cl)cc1-c1ccco1` had a melting point of 60 to 61 °C.
Under `CCCCCCCOC(=O)CCCC` stands -46.4 °C; under `N[C@@H](Cc1ccc(F)cc1)C(=O)O`, 253 °C.
To `Cc1c(S(=O)(=O)Cl)sc2ccc(Cl)cc12` belongs 153 °C; to `NC(=O)OCC(Cl)(Cl)Cl`, 64 °C; to `COC(=O)C1(S(=O)(=O)c2ccccc2)CC1`, 74.5 °C.
Molecule `COc1ccc2c(c1)CC1(CCC(=O)CC1)C2=O` gave a melting point of 93 °C.
In the case of `O=C(O)c1ccc(Cn2cccn2)cc1`, the melting point fell in the range of 192 to 193 °C.
Under `COC(=O)c1ccc2c(C=O)c[nH]c2c1` stands 219 to 224 °C; under `CNC(=C[N+](=O)[O-])NCCSCc1ccc(CN(C)C)o1`, 69 °C; under `CCOP(=O)(Cc1ccc(N)cc1)OCC`, 93 °C.
To `CC(=O)OCC1OC(OC2(COC(C)=O)OC(COC(C)=O)C(OC(C)=O)C2OC(C)=O)C(OC(C)=O)C(OC(C)=O)C1OC(C)=O` (configuration not stated) belongs 86.5 °C; to `Cc1ccc(-c2ccc(C)s2)s1`, 65 to 68 °C.
In turn, `CCOC(=O)c1nn(-c2ccc(C)cc2)c(C)c1C(=O)c1noc(-c2ccc([N+](=O)[O-])cc2)c1S(=O)(=O)c1ccccc1` showed a melting point of 189 °C.
`COc1cc(CC(C)N)c(OC)cc1C` (configuration not stated) yielded a melting point of 60.8 °C.
In the case of `CCOC(=O)c1cc2cc(OC)ccc2o1`, the melting point is 59 to 61 °C.
To `CCOc1ccccc1OCCBr` belongs 42 °C.
The molecule `Nc1nnc(-c2ccccc2)s1` registered a melting point above 270 °C.
The molecule `O=C(OCC(=O)N1CCCC1)c1ccccc1` showed a melting point of 58 °C.
With `NNC(=O)c1ccc(Cl)cc1`, the melting point was 164 °C.
Molecule `CSC` yielded a melting point of -83 °C.
With `COc1ccccc1CC(=O)O`, the melting point is 124 °C.
On to `O=C(O)C(Br)=C(Br)C(=O)O`, for which the melting point lay in the range of 119 to 125 °C.
Regarding `Cc1ccc2c(c1C)CCC1C2CC=C2CC(C(=O)O)CCC21C` (configuration not stated), the melting point was 162 °C.
`Oc1ccccc1C1CCCC1` showed a melting point of 34.5 °C.
Regarding `CC(=O)N=c1sc(S(N)(=O)=O)nn1C`, the melting point stood at 214 °C.
Take `CCC1CN2CCC3(C(=O)Nc4ccccc43)C2CC1C(=COC)C(=O)OC` (configuration not stated): the melting point turned out to be 216 °C.
The molecule `CCSc1nnc(CCn2c(C)nc3ccccc32)n1-c1ccccc1` returned a melting point of 110 °C.
The molecule `CSc1nc(N)cc(N)n1` yielded a melting point of 189 to 193 °C.
`COc1ccc(/C=C/c2ccc([N+](=O)[O-])cc2[N+](=O)[O-])cc1O` displayed a melting point of 190 to 191 °C.
For `CC1CC(C)(C)CC1=O` (configuration not stated), the melting point was -25.6 °C.
Take `CC1CCCC(O)C1` (configuration not stated): the melting point is -5.5 °C.
`Cc1cc(C(=O)O)c(C)n1Cc1ccncc1` showed a melting point of 171 to 173 °C.
`CC12CCC(C(=O)/C(=N\Nc3ccccc3)C1=O)C2(C)C` (configuration not stated) displayed a melting point of 117 °C.
Under `O=C(NCCCBr)c1cc([N+](=O)[O-])cc([N+](=O)[O-])c1` stands 195 °C.
The molecule `COCCNc1c(C=O)c(=O)n(C)c(=O)n1C` registered a melting point of 137 °C.
Regarding `O=C(C1=NOC2C(=O)N(c3ccc(Cl)cc3)C(=O)C12)c1ccco1` (configuration not stated), the melting point is 171 °C.
For the molecule `CCOc1ccc2nc3cc(N)ccc3c(N)c2c1`, the melting point was found to be 226 °C.
As for `Cc1cnnc2ccc3nonc3c12`, the melting point fell in the range of 171 to 173 °C.
As for `O=[N+]([O-])c1ccc(C=Cc2ccc(C=Cc3ccc([N+](=O)[O-])cc3[N+](=O)[O-])cc2)c([N+](=O)[O-])c1`, the melting point was 294 °C.
On to `Cc1[nH]c(=O)n(C(C)(C)C)c(=O)c1Cl`, for which the melting point was 176 °C.
